The text below walks through data of ChEMBL document CHEMBL1201862, “PubChem BioAssay data set” (2004).

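Results reflect a 48-hour exposure of cells in 96-well plates to compound at five concentrations. GI50 marks 50% less growth.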 The source made the active and inactive calls. Cut-off read from the data, not from the text of the source: active = GI50 up to about 1.1 µM and inactive = higher. A value given as a limit tells only on which side of the number the result lay.

Some test systems named below: ACHN; CAKI-1; COLO 205; EKVX; Hs-578T; IGROV-1; K562; LOX IMVI; MOLT-4; Malme-3M; NCI/ADR-RES; PC-3; RPMI-8226; SF-539; SK-MEL-28; SK-MEL-2; SK-OV-3; SNB-19; SW-620; TK-10.
Common to all, as to assay: DTP human tumour cell line panel, 48 h

By GI50 is commonly meant the concentration giving 50% growth inhibition. `O=S(=O)(O)c1cc(O)c(/N=N\C2S(=O)(=O)OCCOS2(=O)=O)c2ccccc12`: the GI50 with ACHN is 46 µM (inactive); in the assay with CAKI-1, > 100 µM (inactive); in the assay with COLO 205 it was > 100 µM (inactive); with EKVX, > 100 µM (inactive); with Hs-578T, > 100 µM (inactive); in the assay with IGROV-1, 37.9 µM (inactive). In addition, the GI50 was > 100 µM (inactive) in the assay with K562; 61.9 µM (inactive) with LOX IMVI; 30.6 µM (inactive) in the assay on MOLT-4; > 100 µM (inactive) with Malme-3M; > 100 µM (inactive) in the assay with NCI/ADR-RES; > 100 µM (inactive) in the assay with PC-3. Moreover, the GI50 in the assay on RPMI-8226 was > 100 µM (inactive); with SF-539 it was 54.3 µM (inactive); with SK-MEL-28, > 100 µM (inactive); with SK-MEL-2, > 100 µM (inactive); in the assay with SK-OV-3, > 100 µM (inactive); in the assay with SNB-19 it was 56.5 µM (inactive). For the same compound, the GI50 in the assay on SW-620 and in the assay on TK-10 was > 100 µM (inactive) each time.

In the case of `COC(=O)/C=C(/C=C1/C(C#N)=C(N)N(c2ccc(Cl)cc2)C1(C)/C(=C\C(=O)OC)C(=O)OC)C(=O)OC` (stereo not given), the GI50 was 22.6 µM (inactive) with ACHN; 22.8 µM (inactive) in the assay with CAKI-1; 15 µM (inactive) with COLO 205; 43.9 µM (inactive) with EKVX; 42.8 µM (inactive) in the assay with Hs-578T; 21.5 µM (inactive) in the assay with IGROV-1. The GI50 with K562 is 23.1 µM (inactive); in the assay with LOX IMVI, 17.1 µM (inactive); with MOLT-4, 23.3 µM (inactive); in the assay on Malme-3M, 25.1 µM (inactive); in the assay on NCI/ADR-RES, 16.8 µM (inactive); with PC-3 it was 12.9 µM (inactive). The GI50 in the assay with RPMI-8226 was 25.1 µM (inactive); in the assay with SF-539, 15.4 µM (inactive); with SK-MEL-28, 18.9 µM (inactive); in the assay on SK-MEL-2 it was 32.1 µM (inactive); in the assay with SK-OV-3, 33.7 µM (inactive); in the assay with SNB-19, 41.9 µM (inactive). In addition, the GI50 is 15.9 µM (inactive) in the assay with SW-620 and 29.4 µM (inactive) with TK-10.

Regarding `CC(C)(C)C1=CC(=C(c2ccc(-c3c4nc(c(-c5ccc(C(=C6C=C(C(C)(C)C)C(=O)C(C(C)(C)C)=C6)c6cc(C(C)(C)C)c(O)c(C(C)(C)C)c6)cc5)c5ccc([nH]5)c(-c5ccc(C(=C6C=C(C(C)(C)C)C(=O)C(C(C)(C)C)=C6)c6cc(C(C)(C)C)c(O)c(C(C)(C)C)c6)cc5)c5nc(c(-c6ccc(C(=C7C=C(C(C)(C)C)C(=O)C(C(C)(C)C)=C7)c7cc(C(C)(C)C)c(O)c(C(C)(C)C)c7)cc6)c6ccc3[nH]6)C=C5)C=C4)cc2)c2cc(C(C)(C)C)c(O)c(C(C)(C)C)c2)C=C(C(C)(C)C)C1=O`, the GI50 in the assay with ACHN, with CAKI-1, in the assay with COLO 205, in the assay on EKVX, in the assay on Hs-578T and with IGROV-1 was > 100 µM (inactive) throughout. In addition, the GI50 with K562, in the assay with LOX IMVI, in the assay on MOLT-4, in the assay on Malme-3M, with NCI/ADR-RES and in the assay on PC-3 was > 100 µM (inactive) throughout. For the same compound, the GI50 in the assay with RPMI-8226, in the assay with SF-539, in the assay with SK-MEL-28, in the assay on SK-MEL-2, in the assay with SK-OV-3 and in the assay with SNB-19 was > 100 µM (inactive) each time. The GI50 in the assay with SW-620 and with TK-10 was > 100 µM (inactive) each time.

For the compound `CCCC(=O)Nc1cc(/C=C/C(=O)N2C[C@H]3C[C@@]34C2=CC(=O)c2[nH]cc(C)c24)n(C)c1`, the GI50 with ACHN is < 0.0025 µM (active); in the assay with CAKI-1 it was < 0.0025 µM (active); with COLO 205, < 0.0025 µM (active); in the assay on EKVX it was < 0.0025 µM (active); with Hs-578T, 0.00273 µM (active); in the assay with IGROV-1, < 0.0025 µM (active). For the same compound, the GI50 in the assay with K562 was < 0.0025 µM (active); in the assay with LOX IMVI, < 0.0025 µM (active); with MOLT-4, < 0.0025 µM (active); with Malme-3M it was < 0.0025 µM (active); in the assay with NCI/ADR-RES, 0.00982 µM (active); in the assay on PC-3 it was < 0.0025 µM (active). The 50% growth inhibitory concentration (GI50) with RPMI-8226 is 0.0161 µM (active); in the assay with SF-539, < 0.0025 µM (active); in the assay on SK-MEL-28, < 0.0025 µM (active); in the assay with SK-MEL-2 it was < 0.0025 µM (active); in the assay on SK-OV-3, 0.00401 µM (active); in the assay with SNB-19 it was 0.00593 µM (active). Besides, the GI50 with SW-620 and with TK-10 was < 0.0025 µM (active) in each case.

With `CC(C)(C)N/C(N)=N/C#N`, the GI50 in the assay with ACHN, in the assay on CAKI-1, in the assay on COLO 205, in the assay on EKVX, with Hs-578T and in the assay on IGROV-1 was > 100 µM (inactive) throughout. For the same compound, the GI50 in the assay with K562, with LOX IMVI, in the assay on MOLT-4, in the assay with Malme-3M, in the assay with NCI/ADR-RES and with PC-3 was > 100 µM (inactive) each time. The GI50 with RPMI-8226, in the assay on SF-539, in the assay on SK-MEL-28, in the assay with SK-MEL-2, with SK-OV-3 and in the assay on SNB-19 was > 100 µM (inactive) each time. Further, the GI50 in the assay on SW-620 and in the assay with TK-10 was > 100 µM (inactive) each time.

For the compound `COc1cc2c(cc1C)NC(=O)/C2=C/c1c(Cl)n(-c2ccccc2)c2ccccc12`, the GI50 was 12.7 µM (inactive) in the assay on ACHN; 21 µM (inactive) in the assay on CAKI-1; 5.86 µM (inactive) in the assay on COLO 205; 17.5 µM (inactive) with EKVX; 20 µM (inactive) in the assay on Hs-578T; 34.4 µM (inactive) in the assay with IGROV-1. In addition, the GI50 with K562 was 6.46 µM (inactive); in the assay on LOX IMVI it was 7.33 µM (inactive); in the assay with MOLT-4 it was 4.82 µM (inactive); in the assay with Malme-3M, 18.4 µM (inactive); in the assay on NCI/ADR-RES, 16.8 µM (inactive); in the assay with PC-3 it was 4.41 µM (inactive). The GI50 in the assay with RPMI-8226 was 7.28 µM (inactive); in the assay on SF-539, 11.1 µM (inactive); in the assay on SK-MEL-28 it was 21.8 µM (inactive); in the assay on SK-MEL-2 it was 11.4 µM (inactive); in the assay with SK-OV-3, 24.4 µM (inactive); in the assay on SNB-19, 45.7 µM (inactive). For the same compound, the GI50 was 13.9 µM (inactive) in the assay on SW-620 and 28.9 µM (inactive) with TK-10.

In the case of `COc1cc2c(c(OC)c1OC)-c1ccc(SC)c(=O)cc1[C@@H](NC(=O)C(F)(F)F)CC2`, the GI50 is < 0.01 µM (active) in the assay with ACHN; < 0.0139 µM (active) in the assay on CAKI-1; < 0.01 µM (active) in the assay with COLO 205; 13.8 µM (inactive) in the assay with EKVX; < 0.01 µM (active) with Hs-578T; < 0.01 µM (active) in the assay on IGROV-1. Besides, the GI50 is < 0.01 µM (active) in the assay with K562; < 0.01 µM (active) with LOX IMVI; < 0.01 µM (active) with MOLT-4; < 0.01 µM (active) in the assay on Malme-3M; 0.0261 µM (active) in the assay with NCI/ADR-RES; < 0.01 µM (active) with PC-3. Further, the GI50 is < 0.01 µM (active) with RPMI-8226; < 0.01 µM (active) in the assay with SF-539; 0.766 µM (active) in the assay with SK-MEL-28; < 0.01 µM (active) in the assay on SK-MEL-2; 0.13 µM (active) with SK-OV-3; < 0.01 µM (active) in the assay on SNB-19. Besides, the concentration for 50% growth inhibition (GI50) with SW-620 was < 0.01 µM (active); with TK-10 it was 8.63 µM (inactive).
